Toxic doses and inconclusive results are not listed. Square brackets hold non-standard residues; d marks the D form. Peptide text beside a SMILES is read from it. ξ: configuration not given here. Ac5c = NC1(C(=O)O)CCCC1; ξS = NC(CO)C(=O)O
Tested on: BDF1 mice, B16 melanoma ip, median survival T/C
Assay: NCI In Vivo Anticancer Drug Screen. Data for tumor model B16 Melanoma (intraperitoneal) in B6D2F1 (BDF1) mice
Settings: endpoint: median survival time, higher = longer survival
Procedure: The antitumor activity of compounds was measured in mice bearing transplantable tumors. Survival or tumor size were measured and the results are expressed as the measurement made in the treated group (T) divided by the measurement made in the vehicle treated control group (C). The tumor model used in this assay is B16 Melanoma (intraperitoneal) in B6D2F1 (BDF1) mice

[1] = dose: 12.5 mg/kg/injection, schedule: Q01DX009 (ip), vehicle: saline with Tween-80
[2] = dose: 25.0 mg/kg/injection, schedule: Q01DX009 (ip), vehicle: saline with Tween-80
[3] = dose: 50.0 mg/kg/injection, schedule: Q01DX009 (ip), vehicle: saline with Tween-80
[4] = dose: 100.0 mg/kg/injection, schedule: Q01DX009 (ip), vehicle: Klucel (hydroxypropylcellulose) (HPC)
[5] = dose: 200.0 mg/kg/injection, schedule: Q01DX009 (ip), vehicle: Klucel (hydroxypropylcellulose) (HPC)
[6] = dose: 400.0 mg/kg/injection, schedule: Q01DX009 (ip), vehicle: Klucel (hydroxypropylcellulose) (HPC)
[7] = dose: 0.5 mg/kg/injection, schedule: Q01DX009 (ip), vehicle: saline
[8] = dose: 1.0 mg/kg/injection, schedule: Q01DX009 (ip), vehicle: saline
[9] = dose: 2.0 mg/kg/injection, schedule: Q01DX009 (ip), vehicle: saline
[10] = dose: 100.0 mg/kg/injection, schedule: Q01DX009 (ip), vehicle: saline with Tween-80
[11] = dose: 100.0 mg/kg/injection, schedule: Q04DX003 (ip), vehicle: Klucel (hydroxypropylcellulose) (HPC)
[12] = dose: 200.0 mg/kg/injection, schedule: Q04DX003 (ip), vehicle: Klucel (hydroxypropylcellulose) (HPC)
[13] = dose: 400.0 mg/kg/injection, schedule: Q04DX003 (ip), vehicle: Klucel (hydroxypropylcellulose) (HPC)

## O=S(=O)(O)c1ccc2cccc(N=Nc3c(O)ccc4ccccc34)c2c1
[1]
  T/C: 105 % of control
[2]
  T/C: 102 % of control
[3]
  T/C: 91 % of control

## CN(C)NCCN1CCN(CCCN2c3ccccc3Sc3ccc(C(F)(F)F)cc32)CC1
dose: 3.75 mg/kg/injection, schedule: Q01DX009 (ip), vehicle: saline
  T/C: 93 % of control
dose: 7.5 mg/kg/injection, schedule: Q01DX009 (ip), vehicle: saline
  T/C: 112 % of control

## Cc1ccc(NC(=O)c2cccc(C(=O)Nc3ccc(C)c(Cl)c3)c2)cc1Cl
[4]
  T/C: 97 % of control
[5]
  T/C: 105 % of control
[6]
  T/C: 97 % of control

## CCCCC(CC)C(O)C(C)C(C)O (stereo unspecified)
[4]
  T/C: 97 % of control
[5]
  T/C: 87 % of control

## O=C1OC(C(O)CO)C(O)=C1O (stereo unspecified)
dose: 0.12 mg/kg/injection, schedule: Q01DX009 (ip), vehicle: saline
  T/C: 100 % of control
dose: 0.25 mg/kg/injection, schedule: Q01DX009 (ip), vehicle: saline
  T/C: 110 % of control
[7]
  T/C: 105 % of control
dose: 1.0 mg/kg/injection, schedule: Q01DX001 (ip), vehicle: saline
  T/C: 102 % of control
[8]
  T/C: 110 % of control
dose: 2.0 mg/kg/injection, schedule: Q01DX001 (ip), vehicle: saline
  T/C: 100 % of control
[9]
  T/C: 110 % of control
dose: 4.0 mg/kg/injection, schedule: Q01DX001 (ip), vehicle: saline
  T/C: 95 % of control
dose: 4.0 mg/kg/injection, schedule: Q01DX009 (ip), vehicle: saline
  T/C: 105 % of control
dose: 8.0 mg/kg/injection, schedule: Q01DX001 (ip), vehicle: saline
  T/C: 102 % of control
dose: 8.0 mg/kg/injection, schedule: Q01DX009 (ip), vehicle: saline
  T/C: 110 % of control
dose: 16.0 mg/kg/injection, schedule: Q01DX001 (ip), vehicle: saline
  T/C: 100 % of control
dose: 16.0 mg/kg/injection, schedule: Q01DX009 (ip), vehicle: saline
  T/C: 95 % of control
dose: 32.0 mg/kg/injection, schedule: Q01DX001 (ip), vehicle: saline
  T/C: 100 % of control
dose: 64.0 mg/kg/injection, schedule: Q01DX001 (ip), vehicle: saline
  T/C: 97 % of control

## CCCC(C(=O)O)c1ccccc1C (stereo unspecified)
[10]
  T/C: 102 % of control
dose: 200.0 mg/kg/injection, schedule: Q01DX009 (ip), vehicle: saline with Tween-80
  T/C: 99 % of control
dose: 300.0 mg/kg/injection, schedule: Q01DX009 (ip), vehicle: saline with Tween-80
  T/C: 106 % of control

## CCC/C=C/C=C/C1CC(O)C(O)C(=O)C1CO (stereo unspecified)
[1]
  T/C: 102 % of control
[2]
  T/C: 104 % of control
[3]
  T/C: 90 % of control
[10]
  T/C: 95 % of control

## CCN(CC)C(N)=S
[11]
  T/C: 102 % of control
[12]
  T/C: 95 % of control
[13]
  T/C: 97 % of control

## CC(=O)CC(=O)Nc1cccc(C)c1
[4]
  T/C: 105 % of control
[5]
  T/C: 100 % of control
[6]
  T/C: 92 % of control

## Nc1ccc(-c2ccc(N)c(Cl)c2)cc1Cl
[11]
  T/C: 111 % of control
[12]
  T/C: 108 % of control
[13]
  T/C: 100 % of control

## COc1ccc(CCN2CCCC2C(=O)O)cc1OC (stereo unspecified)
dose: 100.0 mg/kg/injection, schedule: Q04DX003 (ip), vehicle: saline
  T/C: 100 % of control
dose: 200.0 mg/kg/injection, schedule: Q04DX003 (ip), vehicle: saline
  T/C: 105 % of control
dose: 400.0 mg/kg/injection, schedule: Q04DX003 (ip), vehicle: saline
  T/C: 96 % of control

## NC(CO)C(=O)NC1(C(=O)O)CCCC1 (stereo unspecified) (H-[ξS]-[Ac5c]-OH)
dose: 100.0 mg/kg/injection, schedule: Q04DX003 (ip), vehicle: saline with Tween-80
  T/C: 123 % of control
dose: 133.0 mg/kg/injection, schedule: Q04DX003 (ip), vehicle: saline with Tween-80
  T/C: 122 % of control
dose: 300.0 mg/kg/injection, schedule: Q04DX003 (ip), vehicle: saline with Tween-80
  T/C: 117 % of control
dose: 400.0 mg/kg/injection, schedule: Q04DX003 (ip), vehicle: saline with Tween-80
  T/C: 100 % of control

## NP(Cl)(c1ccccc1)(c1ccccc1)c1ccccc1
dose: 0.1 mg/kg/injection, schedule: Q01DX009 (ip), vehicle: Klucel (hydroxypropylcellulose) (HPC)
  T/C: 103 % of control
dose: 0.2 mg/kg/injection, schedule: Q01DX009 (ip), vehicle: Klucel (hydroxypropylcellulose) (HPC)
  T/C: 96 % of control
dose: 0.39 mg/kg/injection, schedule: Q01DX009 (ip), vehicle: Klucel (hydroxypropylcellulose) (HPC)
  T/C: 100 % of control

## CO[C@H]1Nc2c(ccc(C)c2O)C(=O)N2C=C(/C=C/C(N)=O)C[C@@H]12
dose: 0.05 mg/kg/injection, schedule: Q04DX003 (ip), vehicle: DMSO
  T/C: 111 % of control
dose: 0.06 mg/kg/injection, schedule: Q01DX009 (ip), vehicle: saline with Tween-80
  T/C: 92 % of control
dose: 0.1 mg/kg/injection, schedule: Q04DX003 (ip), vehicle: DMSO
  T/C: 101 % of control
dose: 0.12 mg/kg/injection, schedule: Q01DX009 (ip), vehicle: saline with Tween-80
  T/C: 94 % of control
dose: 0.2 mg/kg/injection, schedule: Q04DX003 (ip), vehicle: DMSO
  T/C: 120 % of control
dose: 0.25 mg/kg/injection, schedule: Q01DX009 (ip), vehicle: saline with Tween-80
  T/C: 97 % of control
dose: 0.4 mg/kg/injection, schedule: Q04DX003 (ip), vehicle: DMSO
  T/C: 112 % of control
dose: 16.5 micrograms/kg/injection, schedule: Q01DX009 (ip), vehicle: saline + alcohol
  T/C: 106 % of control
dose: 25.0 micrograms/kg/injection, schedule: Q01DX009 (ip), vehicle: saline with Tween-80
  T/C: 100 % of control
dose: 25.0 micrograms/kg/injection, schedule: Q04DX003 (ip), vehicle: saline with Tween-80
  T/C: 101 % of control
dose: 33.0 micrograms/kg/injection, schedule: Q01DX009 (ip), vehicle: saline + alcohol
  T/C: 100 % of control
dose: 50.0 micrograms/kg/injection, schedule: Q01DX009 (ip), vehicle: saline with Tween-80
  T/C: 104 % of control
dose: 50.0 micrograms/kg/injection, schedule: Q04DX003 (ip), vehicle: saline with Tween-80
  T/C: 104 % of control
dose: 66.0 micrograms/kg/injection, schedule: Q01DX009 (ip), vehicle: saline + alcohol
  T/C: 107 % of control
dose: 100.0 micrograms/kg/injection, schedule: Q01DX009 (ip), vehicle: saline with Tween-80
  T/C: 96 % of control
dose: 100.0 micrograms/kg/injection, schedule: Q04DX003 (ip), vehicle: saline with Tween-80
  T/C: 111 % of control
dose: 200.0 micrograms/kg/injection, schedule: Q01DX009 (ip), vehicle: saline with Tween-80
  T/C: 95 % of control
dose: 200.0 micrograms/kg/injection, schedule: Q04DX003 (ip), vehicle: saline with Tween-80
  T/C: 107 % of control

## O=[N+]([O-])c1cccc([N+](=O)[O-])c1Cl
dose: 10.0 mg/kg/injection, schedule: Q01DX009 (ip), vehicle: saline with Tween-80
  T/C: 99 % of control
dose: 20.0 mg/kg/injection, schedule: Q01DX009 (ip), vehicle: saline with Tween-80
  T/C: 94 % of control
dose: 40.0 mg/kg/injection, schedule: Q01DX009 (ip), vehicle: saline with Tween-80
  T/C: 95 % of control
dose: 80.0 mg/kg/injection, schedule: Q01DX009 (ip), vehicle: saline with Tween-80
  T/C: 93 % of control
dose: 160.0 mg/kg/injection, schedule: Q01DX009 (ip), vehicle: saline with Tween-80
  T/C: 91 % of control

## CC(CN(C)C)C(=O)c1ccccc1 (stereo unspecified)
dose: 25.0 mg/kg/injection, schedule: Q01DX009 (ip), vehicle: Klucel (hydroxypropylcellulose) (HPC)
  T/C: 106 % of control
dose: 50.0 mg/kg/injection, schedule: Q01DX009 (ip), vehicle: Klucel (hydroxypropylcellulose) (HPC)
  T/C: 90 % of control
[4]
  T/C: 96 % of control

## CCOC(=O)Nc1cc(N)cc(NC(=O)OCC)c1
dose: 50.0 mg/kg/injection, schedule: Q04DX003 (ip), vehicle: Klucel (hydroxypropylcellulose) (HPC)
  T/C: 94 % of control
[11]
  T/C: 100 % of control
[12]
  T/C: 94 % of control

## [Cl][Pt+2][Cl].[NH-]CC1(C[NH-])CCCC1
[7]
  T/C: 124 % of control
[8]
  T/C: 112 % of control
[9]
  T/C: 157 % of control

## Cc1ccc(S(=O)(=O)N(Cc2cccc(CN(S(=O)(=O)c3ccc(C)cc3)S(=O)(=O)c3ccc(C)cc3)c2)S(=O)(=O)c2ccc(C)cc2)cc1
[11]
  T/C: 87 % of control

## O=C([O-])C[n+]1ccccc1
dose: 100.0 mg/kg/injection, schedule: Q01DX009 (ip), vehicle: saline
  T/C: 108 % of control
dose: 200.0 mg/kg/injection, schedule: Q01DX009 (ip), vehicle: saline
  T/C: 103 % of control

Reference: PubChem BioAssay AID192 (DTP/NCI, 2004)
